Source: patent US20060035810A1, “Regulation of ins(3456)p4 signalling by a reversible kinase phosphatase and methods and compositions related thereto” (priority 2002, published 2006)

Key:
[1] = target: T1, Recombinant human Ins(3,4,5,6)P4 1-kinase (Homo sapiens, UniProt Q13572); test: Inositol phosphate kinase activity assay (HPLC); type: biochemical; conditions: for product of phosphorylation by the kinase: 50 uM substrate, 3.4 ug enzyme, 4 hr, 37° C., 5 mM ATP
T1 construct: made in house; host or cells: E. coli
T1 sequence (Q13572 1-414): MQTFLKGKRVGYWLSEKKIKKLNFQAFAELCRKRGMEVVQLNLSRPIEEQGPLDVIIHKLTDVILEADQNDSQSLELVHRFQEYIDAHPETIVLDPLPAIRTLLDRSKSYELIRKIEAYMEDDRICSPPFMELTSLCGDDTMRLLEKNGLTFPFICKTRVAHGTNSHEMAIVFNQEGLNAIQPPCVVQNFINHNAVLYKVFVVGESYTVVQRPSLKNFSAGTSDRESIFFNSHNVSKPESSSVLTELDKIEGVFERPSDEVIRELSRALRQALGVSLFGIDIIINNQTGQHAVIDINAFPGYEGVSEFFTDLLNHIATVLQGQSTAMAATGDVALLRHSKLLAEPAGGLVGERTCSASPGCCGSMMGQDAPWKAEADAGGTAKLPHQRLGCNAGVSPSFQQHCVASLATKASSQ
Description: (§1) Inositol phosphate phosphatase activity was assayed in buffer containing 100 mM KCl, 20 mM HEPES pH 7.2, 5 mM ADP, 6 mM MgSO4, 0.3 mg/ml bovine serum albumin. Assays were acid-quenched, neutralized and analyzed by HPLC using a Synchropak Q100 columm (Caffrey et al., “Expanding Coincident Signaling by PTEN through its Inositol 1,3,4,5,6-Pentakisphosphate 3-phosphatase Activity,” FEBS Lett 499: 6-10 (2001)); 1 ml fractions were collected for 70 min., followed by 0.5 ml fractions. Inositol phosphate kinase activity was assayed in buffer containing 100 mM KCl, 20 mM HEPES pH 7.2, 5 mM ATP, 10 mM phosphocreatine, 6 mM MgSO4, 10 μg/ml creatine phosphokinase (Calbiochem), 0.3 mg/ml bovine serum albumin. Some assays were acid-quenched and analyzed by HPLC using a Synchropak Q100 column. Other reactions were heat-inactivated (95° C., 3 min) and analyzed by a metal dye detection, HPLC method (Mayr, “A novel metal-dye detection sysytem permits picomolar-range h.p.l.c. analysis of inositol polyphosphates from non-radioactively labelled cell or tissue specimens,” Biochem J 254: 585-591 (1988); Adelt et al., “Enzyme-assisted total synthesis of the optical antipodes D-myo-inositol 3,4,5-trisphosphate and D-myo-inositol 1,5,6-trisphosphate: aspects of their structure-activity relationship to biologically active inositol phosphates,” J Med Chem 42: 1262-1273 (1999)).
Activity of 3.4 ug of inositol 3,4,5,6-tetrakisphosphate 1-kinase was assayed for 4 hr. at 37° C. in 200 μl buffer containing 100 mM KCl, 20 mM HEPES pH 7.2, 5 mM ATP, 10 mM phosphocreatine, 6 mM MgSO4, 10 μg/ml creatine phosphokinase (Calbiochem), 0.3 mg/ml bovine serum albumin and 50 uM of either inositol 3,4,5-trisphosphate, 4,5,6-trisphosphate or inositol 3,5,6-trisphosphate. Reactions were heat-inactivated (95° C., 3 min) and analyzed by a metal dye detection, HPLC method.
[…] (Manassas, Va.) supplied the CFPAC-1 cells and T84 cells. Recombinant human Ins(3,4,5,6)P4 1-kinase was expressed in E. coli and purified (Yang et al., “Multitasking in Signal Transduction by a Promiscuous Human Ins(3,4,5,6)P4 1-Kinase/Ins(1,3,4)P3 5/6-Kinase,” Biochem J 351: 551-555 (2000)). Non-radiolabeled Ins(1,3,4)P3 and Ins(1,3,4,5,6)P5 were purchased from CellSignals Inc (Lexington, Ky.). The details of the synthesis of non-radiolabeled Ins(3,4,5)P3, Ins(3,5,6)P3, Ins(4,5,6)P3 and Ins(3,4,6)P3 (as sodium salts) will be published separately by S.-K. C. Ins(3,4,6)P3 was also prepared by a different synthetic route (Mills et al., “Synthesis of D- and L-myo-inositol 1,4,6-trisphosphate, regioisomers of a ubiquitous second messenger,” J Org Chem 61: 8980-8987 (1996)). [^3H]Ins(1,3,4,5,6)P5 was prepared as previously described (Zhang et al., “The Transcriptional Regulator, Arg82, is a Hybrid Kinase with both Monophosphoinositol- and Diphosphoinositol-Polyphosphate Synthase Activity,” FEBS Lett 494: 208-212 (2001)). [^3H]Ins(1,3,4)P3 was prepared from [^3H]Ins(1,3,4,5)P4 (New England Nuclear) using recombinant Ins(1,4,5)P3/Ins(1,3,4,5)P4 5-phosphatase (Erneux et al., “Production of recombinant human brain type I inositol-1,4,5-trisphosphate 5-phosphatase in Escherichia coli. Lack of phosphorylation by protein kinase C,” Eur J Biochem 234: 598-602 (1995)). [^3H]Ins(1,3,4)P3 was converted to [^3H]Ins(1,3,4,6)P4 using Ins(1,3,4)P3 6-kinase activity (Yang et al., “Multitasking in Signal Transduction by a Promiscuous Human Ins(3,4,5,6)P4 1-Kinase/Ins(1,3,4)P3 5/6-Kinase,” Biochem J 351: 551-555 (2000)). [^3H]Ins(3,4)P2 was prepared by alkaline phosphatase attack on [^3H]Ins(1,3,4)P3 in 20 mM glycine (pH 9.0 with KOH). [^3H]Ins(1,4)P2 was purchased from New England Nuclear.

[2] = tested on: calcium-activated Cl− channels; test: Whole-cell Cl− current in CFPAC-1 cells (bio-assay for Ins(3,4,5,6)P4); type: cell-based, human; conditions: 100 μM introduced into CFPAC-1 cells; control 54±3 pA/pF
Description: T84 cells were detached by incubation with 0.25% (w/v) trypsin/0.02% (w/v) EDTA for 5-6 min. After trypsin removal, 200 μl aliquots (1.5×10^6/ml) were seeded into the circular wells (area=0.45 cm^2) of permeable supports, made by gluing (Silastic® sealant, Dow Corning, Midland, Mich.) a Sylgard® ring to filters composed of mixed cellulose esters (Millipore Corp., Bedford, Mass.). Seeded supports were floated on culture medium and incubated for 11-14 days before being mounted in modified Snapwell holders in Using chambers (EasyMount System, Physiologics Instruments, San Diego, Calif.). Transcellular Cl^− flux was then recorded as the short-circuit current as previously described. The resistance of the monolayers were (vector) 346±44 ohms/cm^2 (mean±se, n=12) and (kinase) 354±62 ohms/cm^2 (mean±se, n=12). Whole-cell Cl^− currents in CFPAC—I cells were measured at +40 mV as previously described using an intracellular Ca^2+-BAPTA buffer to clamp free [Ca^2+] to 0.5 μM [8]. One possibility is that Ins(3,4,5,6)P4 originates by phosphorylation of an InsP3 precursor. […] Control whole-cell Cl^− current (54±3 pA/pF, n—17) was reduced to 24±3 pA/pF (n=7) by 10 μM Ins(3,4,5,6)P4.

[3] = tested on: insulin granules in pancreatic β-cells; test: Insulin granule acidification, LSG fluorescence with patch-clamp and confocal imaging; type: cell-based, mouse
Description: FIG. 6. Ins(3,4,5,6)P4 inhibits acidification of insulin granules in pancreatic β-cells. FIG. 6A, Representative time-courses for intragranular acidification, monitored by increased fluorescence of LSG before and after establishment of the standard whole-cell configuration (see arrow) and the effect of perfusion of intracellular medium (containing 0.4 μM [Ca^2+]free except where “no calcium” is indicated; see Methods) plus either 0 (“control”), 1 or 10 μM Ins(3,4,5,6)P4. FIG. 6B, Mean (±SE) fluorescence changes (n-5-11), during the 60 s that followed establishment of the standard whole-cell configuration, for cells perfused with inositol phosphates as indicated at the base of the bar graph. Where indicated, DIDS (100 μM) were added to the bath solution 30 min prior to patching the cells. Statistical significance was evaluated by Student's unpaired t-test (* P<0.01).
The inositol phosphates used in this study were all purchased from CellSignals Inc (Lexington, Ky.). Insulin granule pH were monitored by combining the patch-clamp technique with confocal imaging. Pancreatic β-cells, isolated and cultured on glass coverslips for 2-24 h, were voltage clamped at −70 mV, as previously described (B9). LysoSensor-Green™ DND-189 (1 μM; Molecular Probes, Leiden, The Netherlands) was added during the last 30 min of cell culture and was also included in the extracellular buffer (B9) that continuously perfused the experimental chamber. All LSG experiments were performed at 20° C. to prevent exocytosis that otherwise interfered with the optical measurements (15). LSG fluorescence was excited using the 488 nm-line of a Zeiss 510 confocal microscope. The emitted light was collected with a 63×/1.3 NA oil objective and a >505 nm filter. Laser scanning was performed with low pixel resolution (128×128) and with 6 s intervals to minimize photo-bleaching. After gigaseal formation, it was ascertained that LSG fluorescence was stable for at least 30 s before the experiment commenced. The intracellular electrode solution contained: 125 mM K-glutamate, 10 mM KCl, 1 0 mM NaCl, 1 mM MgCl2, 5 mM HEPES, 3 mM Mg-ATP, 0.1 mM cAMP, 10 mM EGTA and 7 mM CaCl2 (˜0.4 μM free [Ca^2+]I; pH 7.2 with KOH). In some experiments, marked “no calcium”, there was no added Ca^2+, and the concentration of EGTA was 50 μM. Whole-cell capacitance measurements (at 33° C.) were made with the cells clamped at −70 mV, and the standard whole-cell configuration was established at t=0. Capacitance recordings were made using an EPC-7 patch-clamp amplifier equipped with the software Pulse (version 8.4 and later) and the X-chart extension (HEKA Elektronik, Lambrecht/Pfalz, Germany) (B9).

[4] = target: T2, Ins(1,3,4,5,6)P5 1-phosphatase activity of Ins(3,4,5,6)P4 kinase (Homo sapiens, UniProt Q13572); test: Inositol phosphate phosphatase activity assay with ADP (HPLC); type: biochemical; conditions: 5 μM Ins(1,3,4,5,6)P5, 5 mM ADP, addition of 1-5 μM Ins(1,3,4)P3
T2 construct: made in house; host or cells: E. coli
T2 sequence (Q13572 1-414): T1 sequence (Q13572 1-414)
Description: Ins(3,4,5,6)P4 kinase (0.4 μg) was incubated for 30 min in 100 μl phosphatase assay buffer (see Methods) either with (closed circles) or without (open circles) 5 mM ADP plus trace-amounts of either [^3H]Ins(1,3,4,5,6)P5 (panel A) [^3H]Ins(1,3,4,6)P4 (panel B), or [^3H]Ins(1,3,4,5)P4 (panel C). Samples were analyzed by HPLC (see Methods). The elution positions of Ins(1,3,4)P3 and Ins(3,4,5,6)P4 were verified with genuine standards. The elution positions of Ins(1,3,4,6)P4 (106 min, panel B) and of Ins(1,3,4,5)P4 (110 min, panel C) exclude these as products of InsP5 dephosphorylation (panel A).
Additional incubations were performed with 5 μM [^3H]Ins(1,3,4)P3 (approx. 1200 d.p.m.) plus either no Ins(1,3,4,5,6)P5 (open circles) or 5 μM non-radiolabeled Ins(1,3,4,5,6)P5 (closed circles); these reactions were assayed by HPLC (Synchropak Q100 column) and the InsP4 region of the chromatogram is shown in Panel B.
as §1

SMILES: O=P(O)(O)O[C@H]1[C@H](O)[C@@H](OP(=O)(O)O)[C@H](OP(=O)(O)O)[C@@H](OP(=O)(O)O)[C@H]1O [Ins(1,3,4,5)P4]
- whether the enzyme phosphorylates the inositol phosphate [1]: does not phosphorylate

SMILES: O=P(O)(O)O[C@H]1[C@H](O)[C@H](O)[C@H](OP(=O)(O)O)[C@@H](OP(=O)(O)O)[C@@H]1O [Ins(3,4,6)P3, inositol 3,4,6-trisphosphate]
- whole-cell Cl− current [2]: 68±5 pA/pF
- product of phosphorylation by the kinase [1]: metabolized to Ins(1,3,4,5)P4
- Km ([1]; read-out: Km as kinase substrate): 0.2 µM

SMILES: NCCCCCCNS(=O)(=O)c1cccc2c(Cl)cccc12 [W-7]
- effect on granule acidification ([3]; treatment of the cells with calmodulin antagonist): without effect

SMILES: O=P(O)(O)O[C@@H]1[C@@H](O)[C@H](OP(=O)(O)O)[C@@H](OP(=O)(O)O)[C@H](O)[C@@H]1O [Ins(3,5,6)P3, inositol 3,5,6-trisphosphate]
- whole-cell Cl− current [2]: 60±6 pA/pF
- product of phosphorylation by the kinase [1]: phosphorylated to inositol 1,3,5,6-tetrakisphosphate

SMILES: O=P(O)(O)OC1C(O)C(O)C(O)C(OP(=O)(O)O)C1OP(=O)(O)O (stereo not drawn) [Ins(4,5,6)P3, inositol 4,5,6-trisphosphate]
- whole-cell Cl− current [2]: 56±7 pA/pF
- product of phosphorylation by the kinase [1]: phosphorylated to inositol 1,4,5,6-tetrakisphosphate

SMILES: O=P(O)(O)OC1[C@@H](OP(=O)(O)O)[C@@H](O)C(O)[C@H](O)[C@H]1OP(=O)(O)O (stereo partly drawn) [Ins(3,4,5)P3, inositol 3,4,5-trisphosphate]
- whole-cell Cl− current [2]: 61±7 pA/pF
- product of phosphorylation by the kinase [1]: phosphorylated to inositol 3,4,5,6-tetrakisphosphate

SMILES: O=P(O)(O)O[C@@H]1[C@H](O)[C@H](O)[C@@H](OP(=O)(O)O)[C@H](OP(=O)(O)O)[C@H]1O [Ins(1,3,4)P3, inositol 1,3,4-trisphosphate]
- increase of net accumulation of Ins(3,4,5,6)P4 [4]: up to 5 fold

SMILES: O=P(O)(O)O[C@H]1[C@H](O)[C@@H](O)[C@H](OP(=O)(O)O)[C@@H](O)[C@H]1O [Ins(1,4)P2]
- whether the enzyme phosphorylates the inositol phosphate [1]: not phosphorylated

SMILES: O=P(O)(O)O[C@H]1[C@H](OP(=O)(O)O)[C@@H](OP(=O)(O)O)[C@@H](O)[C@@H](O)[C@@H]1OP(=O)(O)O [Ins(1,4,5,6)P4, inositol 1,4,5,6-tetrakisphosphate]
- whether the enzyme phosphorylates the inositol phosphate [1]: does not phosphorylate
- effect on vesicle acidification ([3]; 100 μM): neither 100 μM Ins(1,4,5,6)P4 nor 100 μM Ins(1,3,4,5,6)P5 affected
